# “And” between values parts separate entries of the source, which are not always exact repeats. Identical values can stand only once. After the bases stand the sugars from the 5' end (letter, count) and the backbone: PS all phosphorothioate, else s phosphorothioate and o phosphodiester by linkage. Methylation of C is not given here. k = constrained ethyl (cEt); d = 2'-deoxy (DNA)
# Target: MALAT1
# Details: ASO, A431, 0.005 µM
row,Sequence,target mRNA inhibition
1,"TGATCATAATCTCCCA (sugars k3 d10 k3, PS)",43%
2,"TGCACTAAAGATCACT (sugars k3 d10 k3, PS)",37%
3,"TGCCAAGCCAAGCCGC (sugars k3 d10 k3, PS)",13%
4,"TGCCTTTACTTATCAA (sugars k3 d10 k3, PS)",26%
5,"TGCTCCTCAGTCCTAG (sugars k3 d10 k3, PS)",26%
6,"TGCTGTTACCTCCCAC (sugars k3 d10 k3, PS)",14%
7,"TGGAAAGCGAGTTCAA (sugars k3 d10 k3, PS)",-4%
8,"TGGCCTACTCAAGCTC (sugars k3 d10 k3, PS)",-8%
9,"TGGGAATACTCTTCCA (sugars k3 d10 k3, PS)",11%
10,"TGGGAGTTACTTGCCA (sugars k3 d10 k3, PS)",19%
11,"TGGTGAATTCAACTGG (sugars k3 d10 k3, PS)",33%
12,"TGGTTAGGTATGAGCT (sugars k3 d10 k3, PS)",4%
13,"TGTAAACCTGTGGTGG (sugars k3 d10 k3, PS)",48%
14,"TGTACTATCCCATCAC (sugars k3 d10 k3, PS)",51% and 71%
15,"TGTCAATAGTACTATA (sugars k3 d10 k3, PS)",18%
16,"TGTCAATTTATAGACC (sugars k3 d10 k3, PS)",6%
17,"TGTGTTATGCCTGGTT (sugars k3 d10 k3, PS)",1%
18,"TGTTATGTTCACCTGA (sugars k3 d10 k3, PS)",35%
19,"TGTTTAAGTCACCTTC (sugars k3 d10 k3, PS)",74% and 63%
20,"TTAACAATTTGCAGGC (sugars k3 d10 k3, PS)",66% and 79%
21,"TTAACTTCCCCCAGCT (sugars k3 d10 k3, PS)",0%
22,"TTAAGAACTCCACAGC (sugars k3 d10 k3, PS)",46%
23,"TTAAGACCAAGGGAGG (sugars k3 d10 k3, PS)",29%

row,Sequence,target mRNA inhibition
1,"TTAATGCTAGTCCTCA (sugars k3 d10 k3, PS)",39%
2,"TTAATGTCAGCCCAGT (sugars k3 d10 k3, PS)",37%
3,"TTACACATCCAAACTC (sugars k3 d10 k3, PS)",1%
4,"TTACAGTTCTTGAACA (sugars k3 d10 k3, PS)",25%
5,"TTACCATAAGTAAGTT (sugars k3 d10 k3, PS)",-20%
6,"TTACTCTAATCACTGT (sugars k3 d10 k3, PS)",33%
7,"TTACTTCCGTTACGAA (sugars k3 d10 k3, PS)",-8%
8,"TTAGTAACCTATTGAC (sugars k3 d10 k3, PS)",34%
9,"TTAGTAGCTTTTTGAT (sugars k3 d10 k3, PS)",39%
10,"TTATCTAAATACCACC (sugars k3 d10 k3, PS)",2%
11,"TTATCTGCGGTTTCCT (sugars k3 d10 k3, PS)",45%
12,"TTATTTAGAGGGCCTC (sugars k3 d10 k3, PS)",57% and 72%
13,"TTCAAACTAAGCTACT (sugars k3 d10 k3, PS)",31%
14,"TTCAAGCACCGCTTGA (sugars k3 d10 k3, PS)",12% and 25%
15,"TTCAAGCATTCCTTCG (sugars k3 d10 k3, PS)",62%
16,"TTCAGACAAGATTCAT (sugars k3 d10 k3, PS)",51% and 37%
17,"TTCAGGATCATTAAGC (sugars k3 d10 k3, PS)",18%
18,"TTCCACAGACCTCAAC (sugars k3 d10 k3, PS)",-4%
19,"TTCCTTCGGATGCTTC (sugars k3 d10 k3, PS)",50%
20,"TTCGATCACCTTCCGC (sugars k3 d10 k3, PS)",12%
21,"TTCGCTTTTATTCTGC (sugars k3 d10 k3, PS)",69% and 88%
22,"TTCGGTTAAAAATAGG (sugars k3 d10 k3, PS)",-7%
